In brackets after ≈: the same amount, converted by molar mass. Structures can show the parent of a compound that is named as a salt.
Tests used:
Type in all cases: cell-based
[1] = system: Trichophyton mentagrophytes; assay: series dilution test in vitro, Trichophyton mentagrophytes; details: Sabourauds' milieu d'epreuve, 28° C, 24 to 96 hours; for MIC: read-out: Minimum Inhibitory Concentration
Description: (§1) A. Determination of the antimycotic action spectrum in vitro by means of the series dilution test
(§2) Sabourauds' milieu d'epreuve is used as the nutrient substrate for dermatophytes and Aspergilli, and meat-broth-glucose-bouillon is used as the nutrient substrate for blastomyces. The incubation temperature is 28° C and the incubation time is 24 to 96 hours.

Candida albicans = assay: series dilution test in vitro, Candida albicans; details: 28° C, 24 to 96 hours; for MIC: read-out: Minimum Inhibitory Concentration
Description: as §1, §2

Penicillium commune = assay: series dilution test in vitro, Penicillium commune; details: 28° C, 24 to 96 hours; for MIC: read-out: Minimum Inhibitory Concentration
Description: as §1, §2

Aspergillis niger = assay: series dilution test in vitro, Aspergillus niger; details: Sabourauds' milieu d'epreuve, 28° C, 24 to 96 hours; for MIC: Aspergillus niger, read-out: Minimum Inhibitory Concentration
Description: as §1, §2

Row | Compound | MIC [1] [µg/mL] | MIC (Candida albicans) [µg/mL] | MIC (Penicillium commune) [µg/mL] | MIC (Aspergillis niger) [µg/mL] | Minimum Inhibitory Concentration [1] [µg/mL] | Minimum Inhibitory Concentration (Penicillium commune) [µg/mL] | Minimum Inhibitory Concentration (Aspergillis niger) [µg/mL] | Minimum Inhibitory Concentration (Candida albicans) [µg/mL]
1 | Cc1ccc(C(c2ccccc2)(c2ccccn2)n2ccnc2)cc1C (stereo not drawn) [Example 1, 1-(3,4-dimethylphenyl-phenyl-2-pyridyl)-methyl-imidazole] | 0.5 (≈ 1.47 µM) | 1 (≈ 2.95 µM) | 4 (≈ 11.8 µM) | < 1 | – | – | – | –
2 | Cc1ccc(C(c2ccccc2)(c2ccccn2)n2ccnc2)c(C)c1 (stereo not drawn) [Example 2, 1-(2,4-dimethylphenyl-phenyl-2-pyridyl)-methyl-imidazole] | 0.5 (≈ 1.47 µM) | 10 (≈ 29.5 µM) | 4 (≈ 11.8 µM) | 4 (≈ 11.8 µM) | – | – | – | –
3 | Cc1cccc(C)c1C(c1ccccc1)(c1ccccn1)n1ccnc1 (stereo not drawn) [Example 3, 1-(2,6-dimethylphenyl-phenyl-2-pyridyl)-methyl-imidazole hydrochloride] | 0.5 | 1 | 10 | 4 | – | – | – | –
4 | Cc1ccc(C(c2ccccc2)(c2ccncc2)n2ccnc2)c(C)c1 (stereo not drawn) [Example 4, 1-(2,4-dimethylphenyl-phenyl-4-pyridyl)-methyl-imidazole] | 0.5 (≈ 1.47 µM) | 4 (≈ 11.8 µM) | 10 (≈ 29.5 µM) | 4 (≈ 11.8 µM) | – | – | – | –
5 | Cc1cccc(C(c2ccccc2)(c2ccccn2)n2ccnc2)c1C (stereo not drawn) [Example 8, 1-(2,3-dimethylphenyl-phenyl-2-pyridyl)-methyl-imidazole 1,5-naphthalenedisulphonate] | – | – | – | – | 1 | 4 | 1 | 1
6 | Cc1ccc(C(c2ccccc2)(c2ccncc2)n2ccnc2)cc1C (stereo not drawn) [Example 10, 1-(3,4-dimethylphenyl-phenyl-4-pyridyl)-methyl-imidazole 1,5-naphthalenedisulphonate] | – | – | – | – | 10 | 4 | 4 | 1
7 | Fc1ccc(C(c2ccccc2)(c2ccccn2)n2ccnc2)cc1 (stereo not drawn) [Known Compound 1, 1-(4-fluorophenyl-phenyl-2-pyridyl)-methylimidazole, reference compound] | < 4 | 4 (≈ 12.1 µM) | < 4 | 4 (≈ 12.1 µM) | > 2 | > 2 | 2 | –
8 | FC(F)(F)c1cccc(C(c2ccccc2)(c2ccccn2)n2ccnc2)c1 (stereo not drawn) [Known Compound 2, 1-(3-trifluoromethylphenyl-phenyl-2-pyridyl)-methylimidazole, reference compound] | < 4 | 4 (≈ 10.5 µM) | < 4 | < 4 | > 2 | > 2 | > 2 | –

Continued by falling MIC (Candida albicans), values first:

Row | MIC [1] [µg/mL] | MIC (Candida albicans) [µg/mL] | MIC (Penicillium commune) [µg/mL] | MIC (Aspergillis niger) [µg/mL] | Compound | Minimum Inhibitory Concentration [1] [µg/mL] | Minimum Inhibitory Concentration (Penicillium commune) [µg/mL] | Minimum Inhibitory Concentration (Aspergillis niger) [µg/mL] | Minimum Inhibitory Concentration (Candida albicans) [µg/mL]
9 | 0.5 (≈ 1.47 µM) | 4 (≈ 11.8 µM) | 40 (≈ 118 µM) | 40 (≈ 118 µM) | Cc1ccc(C)c(C(c2ccccc2)(c2ccncc2)n2ccnc2)c1 (stereo not drawn) [Example 6, 1-(2,5-dimethylphenyl-phenyl-4-pyridyl)-methyl-imidazole] | – | – | – | –
10 | – | 1 (≈ 2.95 µM) | – | – | Cc1ccc(C(c2ccccc2)(c2ccncc2)n2ccnc2)cc1C (stereo not drawn) [Example 5, 1-(3,4-dimethylphenyl-phenyl-4-pyridyl)-methyl-imidazole] | 0.5 | 10 | 1 | –
11 | – | 1 (≈ 2.95 µM) | – | – | Cc1cccc(C(c2ccccc2)(c2ccccn2)n2ccnc2)c1C (stereo not drawn) [Example 7, 1-(2,3-dimethylphenyl-phenyl-2-pyridyl)-methyl-imidazole] | 0.05 | 1 | 0.1 | –
12 | 0.5 (≈ 1.47 µM) | 1 (≈ 2.95 µM) | 4 (≈ 11.8 µM) | 1 (≈ 2.95 µM) | Cc1cccc(C(c2ccccc2)(c2ccncc2)n2ccnc2)c1C (stereo not drawn) [Example 9, 1-(2,3-dimethylphenyl-phenyl-4-pyridyl)-methyl-imidazole] | – | – | – | –

From patent publication US3969522A, “Diaryl-pyridyl-imidazole methanes for treating mycotic infections” (Bayer Aktiengesellschaft, priority 1972, dated 1976)
